# ChEMBL document CHEMBL5550150, “Discovery of 9H-pyrimido[4,5-b]indole derivatives as dual RET/TRKA inhibitors” (Bioorg Med Chem, 2024)
# Activity calls are given as the source filed them. The rule behind the calls is not given here.
# Columns and labels:
# [1] = biological target: T1, High affinity nerve growth factor receptor (Homo sapiens, UniProt P04629); experiment: Inhibition of TRK (unknown origin)
# Target sequence in this assay (P04629 whole entry): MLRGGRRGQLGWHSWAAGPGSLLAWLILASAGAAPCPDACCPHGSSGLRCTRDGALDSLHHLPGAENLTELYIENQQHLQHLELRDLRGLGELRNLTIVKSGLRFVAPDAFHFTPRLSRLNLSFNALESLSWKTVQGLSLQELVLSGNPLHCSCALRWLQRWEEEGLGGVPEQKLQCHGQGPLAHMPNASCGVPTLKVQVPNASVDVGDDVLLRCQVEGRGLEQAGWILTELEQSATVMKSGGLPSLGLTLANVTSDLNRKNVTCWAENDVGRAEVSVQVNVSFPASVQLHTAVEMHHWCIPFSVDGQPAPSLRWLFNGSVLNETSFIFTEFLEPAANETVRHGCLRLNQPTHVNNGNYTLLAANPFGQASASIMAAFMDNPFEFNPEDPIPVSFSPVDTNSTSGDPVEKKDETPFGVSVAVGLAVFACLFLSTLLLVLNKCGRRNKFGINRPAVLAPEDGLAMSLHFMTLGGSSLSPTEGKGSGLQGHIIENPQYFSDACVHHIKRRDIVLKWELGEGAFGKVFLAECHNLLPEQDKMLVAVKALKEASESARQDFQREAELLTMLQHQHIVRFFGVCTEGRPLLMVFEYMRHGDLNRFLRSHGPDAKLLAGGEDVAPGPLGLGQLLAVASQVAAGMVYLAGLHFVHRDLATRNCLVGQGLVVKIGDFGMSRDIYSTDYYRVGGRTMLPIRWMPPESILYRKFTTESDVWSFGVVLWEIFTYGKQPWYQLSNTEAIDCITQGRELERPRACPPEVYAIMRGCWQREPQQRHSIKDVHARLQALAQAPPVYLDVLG
# LC-2-ad [2] = experiment: Antiproliferative activity against human LC-2-ad cells harbouring RET assessed as reduction in cell viability; type: functional
# KM12 [3] = experiment: Antiproliferative activity against human KM12 cells harbouring TRK assessed as reduction in cell viability; type: functional
# A549 [4] = experiment: Antiproliferative activity against human A549 cells harbouring KRAS assessed as reduction in cell viability; type: functional
# [5] = biological target: Proto-oncogene tyrosine-protein kinase receptor Ret (Homo sapiens, UniProt P07949); experiment: Inhibition of 5FAM-tagged RET (unknown origin) using 5FAM-EPLYWSFPA as substrate incubated for 60 mins
# LC-2-ad [6] = experiment: Induction of cell cycle arrest in human LC-2-ad cells assessed as accumulation of cells at G1 phase at 0.01 uM incubated for 24 hrs by flow cytometry analysis; type: functional, cell-based
# KM12 [7] = experiment: Induction of cell cycle arrest in human KM12 cells assessed as accumulation of cells at G1 phase at 0.01 uM incubated for 24 hrs by flow cytometry analysis; type: functional, cell-based
# A549 [8] = experiment: Induction of cell cycle arrest in human A549 cells assessed as accumulation of cells at G1 phase at 0.01 uM incubated for 24 hrs by flow cytometry analysis; type: functional, cell-based
# LC-2-ad [9] = experiment: Induction of cell cycle arrest in human LC-2-ad cells assessed as accumulation of cells at G1 phase at 1 uM incubated for 24 hrs by flow cytometry analysis; type: functional, cell-based
# [10] = biological target: T1, High affinity nerve growth factor receptor; experiment: Inhibition of TRK autophosphorylation (unknown origin)
# Target sequence in this assay (P04629 33-796 limits assumed): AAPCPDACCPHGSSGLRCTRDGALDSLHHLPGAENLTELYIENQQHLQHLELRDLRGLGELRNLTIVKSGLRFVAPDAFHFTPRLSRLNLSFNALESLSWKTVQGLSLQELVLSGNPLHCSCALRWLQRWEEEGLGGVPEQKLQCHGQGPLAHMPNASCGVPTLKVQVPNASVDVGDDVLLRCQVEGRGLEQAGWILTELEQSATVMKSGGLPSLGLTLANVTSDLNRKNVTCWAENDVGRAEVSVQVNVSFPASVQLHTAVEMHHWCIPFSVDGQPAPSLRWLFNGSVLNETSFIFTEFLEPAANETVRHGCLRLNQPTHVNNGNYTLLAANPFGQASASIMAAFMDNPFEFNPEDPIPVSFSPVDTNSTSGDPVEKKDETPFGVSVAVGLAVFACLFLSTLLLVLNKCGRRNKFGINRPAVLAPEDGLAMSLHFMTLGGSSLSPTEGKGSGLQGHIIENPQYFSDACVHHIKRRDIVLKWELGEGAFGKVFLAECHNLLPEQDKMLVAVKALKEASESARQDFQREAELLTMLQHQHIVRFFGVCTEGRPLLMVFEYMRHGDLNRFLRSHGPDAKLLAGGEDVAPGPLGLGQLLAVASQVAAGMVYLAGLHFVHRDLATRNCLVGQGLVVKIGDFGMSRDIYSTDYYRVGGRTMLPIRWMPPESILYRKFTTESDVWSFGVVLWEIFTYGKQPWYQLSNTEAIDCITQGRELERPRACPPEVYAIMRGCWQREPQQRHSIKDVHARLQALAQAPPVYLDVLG
# [11] = biological target: T1, High affinity nerve growth factor receptor; experiment: Inhibition of TRK autophosphorylation in human LC-2-ad cells at 0.01 to 1 uM measured after 24 hrs by Western blot analysis; type: cell-based; conditions: dose 0.01-1 µM
# Target sequence in this assay (P04629 33-796 limits assumed): as above
# [12] = biological target: T1, High affinity nerve growth factor receptor; experiment: Inhibition of TRK autophosphorylation in human KM12 cells at 0.01 to 1 uM measured after 24 hrs by Western blot analysis; type: cell-based; conditions: dose 0.01-1 µM
# Target sequence in this assay (P04629 33-796 limits assumed): as above
# KM12 [13] = experiment: Induction of cell cycle arrest in human KM12 cells assessed as accumulation of cells at G1 phase at 1 uM incubated for 24 hrs by flow cytometry analysis; type: functional, cell-based
# Chain of Proto-oncogene tyrosine-protein kinase receptor Ret (P07949 whole entry): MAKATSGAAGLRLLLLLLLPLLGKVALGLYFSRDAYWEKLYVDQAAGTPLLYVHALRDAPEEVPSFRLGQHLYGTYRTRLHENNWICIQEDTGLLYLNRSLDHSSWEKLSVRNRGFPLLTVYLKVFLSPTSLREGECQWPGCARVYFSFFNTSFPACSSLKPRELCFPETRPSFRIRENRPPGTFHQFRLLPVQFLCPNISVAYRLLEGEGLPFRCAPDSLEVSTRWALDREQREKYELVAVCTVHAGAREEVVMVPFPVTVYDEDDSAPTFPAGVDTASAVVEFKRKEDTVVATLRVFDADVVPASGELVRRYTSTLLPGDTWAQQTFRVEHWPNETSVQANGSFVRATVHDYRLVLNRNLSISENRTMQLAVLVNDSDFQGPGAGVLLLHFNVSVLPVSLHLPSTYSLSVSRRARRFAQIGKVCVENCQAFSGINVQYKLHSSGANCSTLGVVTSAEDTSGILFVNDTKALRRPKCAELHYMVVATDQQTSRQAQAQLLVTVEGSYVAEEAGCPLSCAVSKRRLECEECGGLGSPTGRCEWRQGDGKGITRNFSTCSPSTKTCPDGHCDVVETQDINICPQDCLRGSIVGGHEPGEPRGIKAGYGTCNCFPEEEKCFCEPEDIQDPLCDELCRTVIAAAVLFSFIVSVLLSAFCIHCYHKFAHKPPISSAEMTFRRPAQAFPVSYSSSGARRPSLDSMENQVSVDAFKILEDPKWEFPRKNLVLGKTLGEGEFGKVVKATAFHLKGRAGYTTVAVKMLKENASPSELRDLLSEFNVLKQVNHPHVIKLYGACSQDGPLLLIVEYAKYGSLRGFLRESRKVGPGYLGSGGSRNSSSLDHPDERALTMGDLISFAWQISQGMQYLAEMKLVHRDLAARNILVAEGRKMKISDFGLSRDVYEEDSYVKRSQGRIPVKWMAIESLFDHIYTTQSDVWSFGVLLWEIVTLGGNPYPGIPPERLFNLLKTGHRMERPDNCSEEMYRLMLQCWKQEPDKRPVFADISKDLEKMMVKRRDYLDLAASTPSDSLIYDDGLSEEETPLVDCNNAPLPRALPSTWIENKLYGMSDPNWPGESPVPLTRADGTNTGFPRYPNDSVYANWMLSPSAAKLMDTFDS
Compound,inhibition [10],GC50 (LC-2-ad [2]) [µM],GC50 (KM12 [3]) [µM],GC50 (A549 [4]) [µM],Activity (LC-2-ad [9]),Activity (KM12 [13]),other results
COc1cc2nccc(Oc3ccc(NC(=O)C4(C(=O)Nc5ccc(F)cc5)CC4)cc3)c2cc1OC [CABOZANTINIB],–,–,–,–,–,–,IC50 [1]: 0.079 µM
O=C(Cc1ccc(Nc2ncnc3[nH]c4ccccc4c23)cc1)Nc1cccc(C(F)(F)F)c1,–,0.94,0.49,>10,–,–,–
Cn1cc(-c2ccc3c(c2)ncn3-c2ccc(CC(=O)Nc3cc(C(C)(C)C)on3)cc2)cn1,–,–,–,–,–,–,IC50 [1]: 0.0016 µM; IC50 [5]: 0.001 µM
C[C@@H]1CCc2ncc(F)cc2[C@H]2CCCN2c2ccn3ncc(c3n2)C(=O)N1 [SELITRECTINIB],–,25.98,0.005,>40,–,–,Activity (LC-2-ad [6]): Active; Activity (KM12 [7]): Active; Activity (A549 [8]): Active
COCCn1cc(-c2ccc3c(c2)[nH]c2ncnc(Nc4ccc(CC(=O)Nc5cc(C(C)(C)C)on5)cc4)c23)cn1,–,0.36,0.59,5.88,–,–,–
CNC(=O)c1cc(Oc2ccc(NC(=O)Nc3ccc(Cl)c(C(F)(F)F)c3)cc2)ccn1 [SORAFENIB],–,0.54,3.82,7.2,–,–,Activity (LC-2-ad [6]): Active; Activity (KM12 [7]): Active; Activity (A549 [8]): Active
Cn1nc(C(C)(C)C)cc1NC(=O)Cc1ccc(Nc2ncnc3[nH]c4ccccc4c23)cc1,Active,–,–,–,Active,Active,inhibition [11]: Active; inhibition [12]: Active

# Second part, led by results:
inhibition [10],Compound,GC50 (LC-2-ad [2]) [µM],GC50 (KM12 [3]) [µM],GC50 (A549 [4]) [µM],Activity (LC-2-ad [9]),Activity (KM12 [13]),other results
Active,Cn1cc(-c2ccc3c(c2)[nH]c2ncnc(Nc4ccc(CC(=O)Nc5cc(C(C)(C)C)nn5C)cc4)c23)cn1,–,–,–,Active,Active,inhibition [11]: Active; inhibition [12]: Active
Active,Cn1cc(-c2ccc3c(c2)[nH]c2ncnc(Nc4ccc(CC(=O)Nc5cc(C(C)(C)C)on5)cc4)c23)cn1,–,–,–,Active,Active,–
